Assay results as given in the supplement of paper PMC10307832.

Assays:
Test in all cases: relative viability (nuclei count vs DMSO), 5 days (fraction); higher = more cells survive
GSK126 + Linsitinib = compound: CC[C@H](C)N1C=C(C2=C(C=C(C=C21)C3=CN=C(C=C3)N4CCNCC4)C(=O)NCC5=C(C=C(NC5=O)C)C)C [GSK126] + C[C@]1(O)C[C@@H](c2nc(-c3ccc4ccc(-c5ccccc5)nc4c3)c3c(N)nccn32)C1 [Linsitinib] (partner 1 µM)
Procedure, shortened: (§1)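 Nuclei were stained with Hoechst during a one-step fixation (final 0.05% Triton X-100, 1% formaldehyde, 1 ug/ml Hoechst) carried out 5 days after dosing, then counted on 4× images. The cells, lung cancer lines in 1536-well plates, had been dosed by pin tool the day after seeding with one drug alone or a fixed anchor-drug dose plus five library-drug doses (not always all listed) in √10 steps. Relative viability is the nuclei count in treated wells divided by that in vehicle wells, and each value is the median of duplicate plates.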

MLN4924 + Pemetrexed = compound: NS(=O)(=O)OC[C@@H]1C[C@@H](n2ccc3c(N[C@H]4CCc5ccccc54)ncnc32)C[C@@H]1O [MLN4924] + Nc1nc2[nH]cc(CCc3ccc(C(=O)N[C@@H](CCC(=O)O)C(=O)O)cc3)c2c(=O)[nH]1 [Pemetrexed] (partner 0.2 µM)
Procedure, shortened: as §1

MLN4924 + AZD7762 = compound: NS(=O)(=O)OC[C@@H]1C[C@@H](n2ccc3c(N[C@H]4CCc5ccccc54)ncnc32)C[C@@H]1O [MLN4924] + NC(=O)Nc1cc(-c2cccc(F)c2)sc1C(=O)N[C@H]1CCCNC1 [AZD7762] (partner 0.2 µM)
Procedure, shortened: as §1

MLN4924 + OSI-027 = compound: NS(=O)(=O)OC[C@@H]1C[C@@H](n2ccc3c(N[C@H]4CCc5ccccc54)ncnc32)C[C@@H]1O [MLN4924] + COc1cccc2cc(-c3nc([C@H]4CC[C@H](C(=O)O)CC4)n4ncnc(N)c34)[nH]c12 [OSI-027] (partner 0.5 µM)
Procedure, shortened: as §1

| Cell Line | relative viability (GSK126 + Linsitinib; first compound 0.08 µM) | relative viability (GSK126 + Linsitinib; first compound 0.253 µM) | relative viability (GSK126 + Linsitinib; first compound 0.8 µM) | relative viability (GSK126 + Linsitinib; first compound 2.53 µM) | relative viability (GSK126 + Linsitinib; first compound 8 µM) | relative viability (MLN4924 + Pemetrexed; first compound 0.04 µM) | relative viability (MLN4924 + Pemetrexed; first compound 0.1265 µM) | relative viability (MLN4924 + Pemetrexed; first compound 0.4 µM) | relative viability (MLN4924 + Pemetrexed; first compound 1.265 µM) | relative viability (MLN4924 + Pemetrexed; first compound 4 µM) | relative viability (MLN4924 + AZD7762; first compound 0.04 µM) | relative viability (MLN4924 + AZD7762; first compound 0.1265 µM) | relative viability (MLN4924 + AZD7762; first compound 0.4 µM) | relative viability (MLN4924 + AZD7762; first compound 1.265 µM) | relative viability (MLN4924 + AZD7762; first compound 4 µM) | relative viability (MLN4924 + OSI-027; first compound 0.04 µM) | relative viability (MLN4924 + OSI-027; first compound 0.1265 µM) | relative viability (MLN4924 + OSI-027; first compound 0.4 µM) | relative viability (MLN4924 + OSI-027; first compound 1.265 µM) | relative viability (MLN4924 + OSI-027; first compound 4 µM) |
| --- | --- | --- | --- | --- | --- | --- | --- | --- | --- | --- | --- | --- | --- | --- | --- | --- | --- | --- | --- | --- |
| BEN | 1.19 | 0.953 | 0.813 | 0.893 | 0.653 | 0.602 | 0.884 | 0.455 | 0.28 | 0.227 | 0.66 | 0.76 | 0.561 | 0.321 | 0.264 | 0.318 | 0.308 | 0.228 | 0.218 | 0.195 |
| CAL-12T | 0.964 | 0.94 | 0.78 | 0.918 | 0.868 | 1.06 | 1.1 | 0.67 | 0.636 | 0.224 | 0.522 | 0.514 | 0.365 | 0.274 | 0.247 | 0.619 | 0.593 | 0.283 | 0.184 | 0.113 |
| NCI-H1792 | 0.561 | 0.639 | 0.51 | 0.571 | 0.498 | 0.776 | 0.672 | 1.35 | 0.296 | 0.195 | 0.914 | 0.866 | 1.21 | 0.413 | 0.242 | 0.663 | 0.765 | 0.839 | 0.593 | 0.54 |
| NCI-H2085 | 0.903 | 0.774 | 1.02 | 0.89 | 1.02 | 0.916 | 0.91 | 0.888 | 0.882 | 0.451 | 0.989 | 0.972 | 1.07 | 0.941 | 0.603 | 0.852 | 0.746 | 0.635 | 0.512 | 0.307 |
